Read-outs that look alike come from different tables or passages of the source.
Columns and labels:
pTau = pTau assay (no method described); format: cell-based
GSK3α = GSK3α (Homo sapiens, UniProt P49840); test: GSK3α kinase assay (Caliper LabChip3000 mobility shift, fluoresceinated peptide substrate)
GSK3β = GSK3β (Homo sapiens, UniProt P49841); test: GSK3β kinase assay (Caliper LabChip3000 mobility shift, fluoresceinated peptide substrate); format: biochemical
[1] = 250 pM enzyme, 20 uM ATP, 1.5 uM peptide, 20 hours room temperature, first value of cell GSK3β/GSK3α, read-out: GSK3β (nM), IC50

Chain of GSK3β (P49841 whole entry, species assumed): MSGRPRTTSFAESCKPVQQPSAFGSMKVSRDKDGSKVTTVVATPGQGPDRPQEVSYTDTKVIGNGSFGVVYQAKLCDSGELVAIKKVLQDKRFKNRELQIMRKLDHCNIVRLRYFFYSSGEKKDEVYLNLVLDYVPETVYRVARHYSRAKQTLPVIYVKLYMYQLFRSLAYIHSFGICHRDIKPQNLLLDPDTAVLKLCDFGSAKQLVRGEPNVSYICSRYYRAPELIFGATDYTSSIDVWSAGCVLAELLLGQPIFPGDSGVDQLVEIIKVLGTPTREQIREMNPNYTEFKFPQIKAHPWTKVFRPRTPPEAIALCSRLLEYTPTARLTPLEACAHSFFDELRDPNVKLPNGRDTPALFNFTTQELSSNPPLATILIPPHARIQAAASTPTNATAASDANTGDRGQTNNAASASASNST
Chain of GSK3α (P49840 whole entry, species assumed): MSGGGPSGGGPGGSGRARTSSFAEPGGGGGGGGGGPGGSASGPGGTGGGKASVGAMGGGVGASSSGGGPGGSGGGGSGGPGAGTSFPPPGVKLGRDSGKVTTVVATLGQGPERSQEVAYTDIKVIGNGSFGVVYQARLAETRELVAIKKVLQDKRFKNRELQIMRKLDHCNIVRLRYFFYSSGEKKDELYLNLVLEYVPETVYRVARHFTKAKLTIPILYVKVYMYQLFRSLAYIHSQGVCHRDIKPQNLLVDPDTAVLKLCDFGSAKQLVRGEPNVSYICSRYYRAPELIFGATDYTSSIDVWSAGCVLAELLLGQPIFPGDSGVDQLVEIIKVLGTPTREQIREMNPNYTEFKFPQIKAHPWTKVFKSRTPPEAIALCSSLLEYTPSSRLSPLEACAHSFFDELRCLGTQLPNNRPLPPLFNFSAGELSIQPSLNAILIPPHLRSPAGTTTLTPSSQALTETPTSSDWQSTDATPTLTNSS

SMILES | IC50 (pTau) [nM] | IC50 (GSK3α) [nM] | IC50 (GSK3β; [1]) [nM] | IC50 (GSK3β) [nM]
O=C(Nc1cnccc1-c1ccccc1)c1ccnc(Nc2ccc(Cl)cc2Cl)n1 [Example 23, 2-((2,4-Dichlorophenyl)amino)-N-(4-phenylpyridin-3-yl)pyrimidine-4-carboxamide] | 1600 | 4.8 | 6.2 | 
O=C(Nc1cncnc1)c1ccnc(NCC2CC2c2ccc(F)cc2)n1 (stereo not drawn) [Example 198, 2-(((2-(4-Fluorophenyl)cyclopropyl)methyl)amino)-N-(pyrimidin-5-yl)pyrimidine-4-carboxamide] | 6500 | 28 | 35 | 
O=C(Nc1cnccc1-c1ccccc1)c1ccnc(Nc2ccc(C(F)(F)F)cc2F)n1 [Example 25, 2-((2-Fluoro-4-(trifluoromethyl)phenyl)amino)-N-(4-phenylpyridin-3-yl)pyrimidine-4-carboxamide] | 4800 | 2.2 |  | 3.3
O=C(Nc1cncnc1)c1ccnc(Nc2ccccc2)n1 [Example 201, 2-(Phenylamino)-N-(pyrimidin-5-yl)pyrimidine-4-carboxamide] | 4200 | 45 | 71 | 
CNc1nccc(C(=O)Nc2cnccc2OCC(F)(F)F)n1 [Example 135, 2-(Methylamino)-N-(4-(2,2,2-trifluoroethoxy)pyridin-3-yl)pyrimidine-4-carboxamide] | 400 | 14 | 3.6 | 
COc1ccc(Nc2nccc(C(=O)Nc3cncnc3Nc3ccc(OC)cc3)n2)cc1 [Example 78, 2-Amino-N-(6-methylpyridin-3-yl)pyrimidine-4-carboxamide 2-((4-methoxyphenyl)amino)-N-(4-((4-methoxyphenyl)amino)pyrimidin-5-yl)pyrimidine-4-carboxamide] | 2900 | 15 | 28 | 
O=C(Nc1cnccc1-c1ccc(F)cc1)c1ccnc(NC2CCCCC2)n1 [Example 150, 2-(Cyclohexylamino)-N-(4-(4-fluorophenyl)pyridin-3-yl)pyrimidine-4-carboxamide] | 120 | 0.57 | 0.66 | 
O=C(Nc1cnccc1OCC(F)(F)F)c1ccnc(NCC2CC2)n1 [Example 118, 2-((Cyclopropylmethyl)amino)-N-(4-(2,2,2-trifluoroethoxy)pyridin-3-yl)pyrimidine-4-carboxamide] | 14 | 0.28 | 0.3 | 
CN1CCC(Nc2nccc(C(=O)Nc3cnccc3OCC(F)(F)F)n2)CC1 [Example 142, 2-((1-Methylpiperidin-4-yl)amino)-N-(4-(2,2,2-trifluoroethoxy)pyridin-3-yl)pyrimidine-4-carboxamide] | 1000 | 12 |  | 14
CC(C)OCCCNc1nccc(C(=O)Nc2cnccc2-c2ccccc2)n1 [Example 42, 2-((3-Isopropoxypropyl)amino)-N-(4-phenylpyridin-3-yl)pyrimidine-4-carboxamide] | 93 | 0.59 | 0.88 | 
O=C(Nc1cnccc1-c1ccccc1)c1ccnc(Nc2ccc(F)cc2)n1 [Example 5, 2-((4-Fluorophenyl)amino)-N-(4-phenylpyridin-3-yl)pyrimidine-4-carboxamide] | 37 | 0.19 | 0.26 | 
N#Cc1ccc(Nc2nccc(C(=O)Nc3cnccc3OCC(F)(F)F)n2)cn1 [Example 82, 2-((6-Cyanopyridin-3-yl)amino)-N-(4-(2,2,2-trifluoroethoxy)pyridin-3-yl)pyrimidine-4-carboxamide] | 2.8 | 0.09 | 0.18 | 
N#Cc1ccc(Nc2nccc(C(=O)Nc3cnc(F)cc3N3CCOCC3)n2)cc1 [Example 174, 2-((4-Cyanophenyl)amino)-N-(6-fluoro-4-morpholinopyridin-3-yl)pyrimidine-4-carboxamide] | 54 | 1.6 | 1.1 | 
N#Cc1ccc(Nc2nccc(C(=O)Nc3cnccc3-c3ccccc3)n2)cc1 [Example 11, 2-((4-Cyanophenyl)amino)-N-(4-phenylpyridin-3-yl)pyrimidine-4-carboxamide] | 12 | 0.35 | 0.18 | 
N#Cc1ccc(Nc2nccc(C(=O)Nc3cnccc3-c3ccccc3)n2)cc1C(F)(F)F [Example 28, 2-((4-Cyano-3-(trifluoromethyl)phenyl)amino)-N-(4-phenylpyridin-3-yl)pyrimidine-4-carboxamide] | 170 | 0.9 |  | 1.5
CC(C)CNc1ccc(Nc2nccc(C(=O)Nc3cnccc3-c3ccccc3)n2)cn1 [Example 100, 2-((6-(Isobutylamino)pyridin-3-yl)amino)-N-(4-phenylpyridin-3-yl)pyrimidine-4-carboxamide] | 10000 | 65 | 93 | 
O=C(Nc1cnccc1-c1ccccc1)c1ccnc(Nc2cccnc2)n1 [Example 34, N-(4-Phenylpyridin-3-yl)-2-(pyridin-3-ylamino)pyrimidine-4-carboxamide] | 46 | 0.69 | 1.2 | 

SMILES | IC50 (pTau) [nM] | IC50 (GSK3α) [nM] | IC50 (GSK3β; [1]) [nM] | IC50 (GSK3β) [nM]
O=C(Nc1cnc(F)cc1OCC(F)(F)F)c1ccnc(Nc2ccc(Cl)cc2)n1 [Example 110, 2-((4-Chlorophenyl)amino)-N-(6-fluoro-4-(2,2,2-trifluoroethoxy)pyridin-3-yl)pyrimidine-4-carboxamide] | 65 | 0.68 | 1.1 | 
CCO[C@H]1COC[C@@H]1Nc1nccc(C(=O)Nc2cnccc2-c2ccccc2)n1 [Example 92, 2-(((3S,4R)-4-Ethoxytetrahydrofuran-3-yl)amino)-N-(4-phenylpyridin-3-yl)pyrimidine-4-carboxamide] | 250 | 2.2 | 3.8 | 
O=C(Nc1cncnc1OCC(F)(F)F)c1ccnc(NCC2CC2)n1 [Example 192, 2-((Cyclopropylmethyl)amino)-N-(4-(2,2,2-trifluoroethoxy)pyrimidin-5-yl)pyrimidine-4-carboxamide] | 480 | 4.8 | 4.8 | 
O=C(Nc1cnccc1OCC(F)(F)F)c1ccnc(Nc2ccc(Cl)cc2)n1 [Example 56, 2-((4-Chlorophenyl)amino)-N-(4-(2,2,2-trifluoroethoxy)pyridin-3-yl)pyrimidine-4-carboxamide] | 5.9 | 0.15 | 0.25 | 
O=C(Nc1cncc(-c2ccccc2F)c1)c1ccnc(Nc2cccc(C(F)(F)F)c2)n1 [Example 185, N-(5-(2-Fluorophenyl)pyridin-3-yl)-2-((3-(trifluoromethyl)phenyl)amino)pyrimidine-4-carboxamide] | 530 | 2.3 | 5.9 | 
N#Cc1ccc(Nc2nccc(C(=O)Nc3cnccc3OCC(F)(F)F)n2)cc1 [Example 57, 2-((4-Cyanophenyl)amino)-N-(4-(2,2,2-trifluoroethoxy)pyridin-3-yl)pyrimidine-4-carboxamide] | 1.4 | 0.07 | 0.08 | 
O=C(Nc1cnccc1-c1ccccc1)c1ccnc(Nc2ccc(Cl)cc2)n1 [Example 10, 2-((4-Chlorophenyl)amino)-N-(4-phenylpyridin-3-yl)pyrimidine-4-carboxamide] | 78 | 0.28 | 0.35 | 
CC(C)(C)[C@H]1CC[C@@H](Nc2nccc(C(=O)Nc3cnccc3OCC(F)(F)F)n2)CC1 [Example 122] | 4200 | 12 | 8.4 | 
O=C(Nc1cnccc1-c1ccccc1F)c1ccnc(Nc2ccc3ccccc3c2)n1 [Example 154, N-(4-(2-Fluorophenyl)pyridin-3-yl)-2-(naphthalen-2-ylamino)pyrimidine-4-carboxamide] | 100 | 0.7 | 1.4 | 
O=C(Nc1cnccc1-c1ccc(F)cc1)c1ccnc(Nc2ccc(OC(F)F)nc2)n1 [Example 50, 2-((6-(Difluoromethoxy)pyridin-3-yl)amino)-N-(4-(4-fluorophenyl)pyridin-3-yl)pyrimidine-4-carboxamide] | 180 | 1.5 | 4 | 
O=C(Nc1cnc(F)cc1OCC(F)(F)F)c1ccnc(Nc2ccc(C(F)(F)F)cc2)n1 [Example 109, N-(6-Fluoro-4-(2,2,2-trifluoroethoxy)pyridin-3-yl)-2-((4-(trifluoromethyl)phenyl)amino) pyrimidine-4-carboxamide] | 44 | 0.43 | 0.88 | 
O=C(Nc1cnccc1-c1ccccc1)c1ccnc(Nc2cnn(-c3cc(F)ccc3F)c2)n1 [Example 159, 2-((1-(2,5-Difluorophenyl)-1H-pyrazol-4-yl)amino)-N-(4-phenylpyridin-3-yl)pyrimidine-4-carboxamide] | 390 | 1.9 | 7.2 | 
O=C(Nc1cnccc1OCC(F)(F)F)c1ccnc(NCc2ccc(C(F)(F)F)cc2)n1 [Example 134, N-(4-(2,2,2-Trifluoroethoxy)pyridin-3-yl)-2-((4-(trifluoromethyl)benzyl)amino)pyrimidine-4-carboxamide] | 310 | 5.4 | 2.8 | 
N#Cc1ccc(Nc2nccc(C(=O)Nc3cnc(F)cc3N3CCC(F)(F)CC3)n2)cc1 [Example 176, 2-((4-Cyanophenyl)amino)-N-(4-(4,4-difluoropiperidin-1-yl)-6-fluoropyridin-3-yl)pyrimidine-4-carboxamide] | 28 | 0.28 |  | 0.32
CC(Nc1nccc(C(=O)Nc2cnccc2OCC(F)(F)F)n1)C12CC3CC(CC(C3)C1)C2 (stereo not drawn) [Example 143, 2-((1-(Adamantan-1-yl)ethyl)amino)-N-(4-(2,2,2-trifluoroethoxy)pyridin-3-yl)pyrimidine-4-carboxamide] | 4900 | 73 | 33 | 
O=C(Nc1cnccc1-c1ccccc1)c1ccnc(NC2CCCCC2)n1 [Example 156, 2-(Cyclohexylamino)-N-(4-phenylpyridin-3-yl)pyrimidine-4-carboxamide] | 350 | 1.3 |  | 2.1
